System: Th1 (IL-2, IFN-γ, TNF alpha) and Th2 (IL-4, IL-5, IL-10) cytokines
Assay: Th1 & Th2 cytokines in lymph node cells of HBsAg immunized mice by flowcytometry
Assay type: in vivo
Conditions: adjuvant containing HBsAg; immunized mice day 28, flowcytometry
Source text: Cytokines (Th1 & Th2 responses) in serum by ELISA (Quantikine, R & D systems) and lymph node cells by flowcytometry collected from immunized mice on day 28th (Quantikine, optia Kit).
High levels of Th1 cytokines were secreted in response to MDP and FCA containing HBsAg.

Compound: CC(=O)N[C@H]1C(O)O[C@H](CO)[C@@H](O)[C@@H]1O[C@H](C)C(=O)N[C@@H](C)C(=O)N[C@H](CCC(=O)O)C(N)=O (mixture of isomers) [MDP, Muramyl dipeptide]
- Th1 and Th2 cytokines in lymph nodes cell culture fluid: very low for the Th2 cytokines and increased Th1 type of immune response
